# Assay results published in patent publication US6943181B2, “Use of substituted gamma-lactone compounds as pharmaceutical preparations” (Grunenthal GmbH, priority 2001, dated 2005).
# Target: T1, nitrogen monoxide synthase (NO synthase) (Rattus norvegicus, UniProt P29476)
# T1 construct: the supernatant was then decanted off and frozen in portions; from tissue; host or cells: rat cerebellum (homogenate, 20,000 g supernatant)
# Assay: HTS-NOS assay (nitrogen monoxide synthase assay)
# Assay type: biochemical
# Details: compound at 10 μM; enzyme preparation from rat cerebella; [3H]-arginine substrate
# Excerpt: This assay makes it possible to determine the percentage inhibition of NO synthase by a compound of the general formula I used according to the invention by measuring NOS activity on exposure to the compound. NO synthase is here mixed under suitable conditions together with radioactively labelled arginine and the particular compound of the general formula I. After termination of the NO formation reaction at a predetermined time, the quantity of unconverted arginine is directly or indirectly determined. […] This assay may be carried out at follows: • (a) Incubation of the NO synthase with labelled arginine as the substrate in a reaction vessel, • (b) Separation of the labelled arginine from the labelled citrulline optionally arising as a product of the enzymatic reaction at a time at which the concentration of citrulline is rising, • (c) Measurement of the quantity of arginine separated in each case.
# Separation is performed by means of a filter plate membrane.
# Radioactive arginine is used as the substrate in this HTS-NOS assay. Depending on the type of microtitre plate (MTP), the assay volume may be selected in the range between 25 μl and 250 μl. Depending on the enzyme source used, cofactors and coenzymes are added. The batches are incubated in this microtitre plate (assay MTP) according to step (a) at room temperature and, depending on the enzyme activity used (units), lasts between 5 and 60 minutes. On completion of incubation (step (a)), the plate is placed in a cell harvester, which is equipped with an MTP which has a cation exchange membrane as a filter bottom (filter MTP). All the batches from the assay MTP are transferred into this filter MTP and suction filtered through a cation exchange filter plate, a paper filter loaded with phosphate groups. The filter MTP is then washed with buffer or water. This procedure binds the remaining substrate arginine onto the cation exchanger, while the enzymatically formed radioactive citrulline is quantitatively eluted. Once the filter MTP has been dried and scintillation liquid added, the bound arginine can be counted in the scintillation counter. Low radioactivity indicates an uninhibited NOS reaction. An inhibited enzyme reaction means that the radioactive arginine has not been converted. This means that there is a high level of radioactivity on the filter.
# • Arginine, L-[2,3,4-^3H]-monohydrochloride; item no. […] The pH value of the buffer was adjusted to 7.4 at 25° C. • Washing medium: H2O Enzyme Preparation
# Rat cerebella were used as the starting tissue. The animals were stunned and killed, the brain tissue, the cerebellum, was dissected out, 1 ml of enzyme preparation buffer (4° C.) was added per cerebellum, and the tissue was disrupted for 1 min at 6000 rpm in a Polytron homogeniser. The mixture was then centrifuged at 4° C. for 15 min at 20,000 g, and the supernatant was then decanted off and frozen in portions at −80° C. (discarding the precipitate).
# 96-Well MTPs with a well capacity of ≦250 μl were used Pipetting sequence: see table 1:
# Once the pipetting operation was complete, a lid was laid on top of this MTP (assay MTP). Incubation at 25° C. (room temperature (RT)) for 5-60 min, depending on the quantity and activity of the enzyme used.
# The contents of the assay MTP were then transferred with the assistance of a 96 well cell harvester into a 96 well cation exchange MTP (filter MTP) and suction filtered. A single washing with […] of H2O (from a trough) was then performed.
# The plate was then dried for 1 h at 60° C. in a drying cabinet. The bottom of the filter MTP was then carefully sealed from beneath with a “back seal”. 35 μl of scintillating material were then pipetted into each well. The top of the plate was also sealed with a “top seal”. After 1 hour's waiting time, the plate was assessed on the β-counter.
SMILES,inhibition at 10 µM,NOS (% inhibition)
"CC1(c2ccc3c(c2)OCO3)CC(Nc2n[nH]cc2C#N)C(=O)O1 (stereo not shown) [Example 32, 3-(5-Benzo[1,3]dioxol-5-yl-5-methyl-2-oxo-tetrahydro-furan-3-ylamino)-1H-pyrazole-4-carbonitrile]",41%,
"CCOC(=O)c1c[nH]nc1NC1CC(C)(c2ccc3c(c2)OCO3)OC1=O (stereo not shown) [Example 33, 3-(5-Benzo[1,3]dioxol-5-yl-5-methyl-2-oxo-tetrahydro-furan-3-ylamino)-1H-pyrazole-4-carboxylic acid ethyl ester]",45%,
"CC1(c2ccc3c(c2)OCO3)CC(Nc2ncccc2[N+](=O)[O-])C(=O)O1 (stereo not shown) [Example 34, 5-Benzo[1,3]dioxol-5-yl-5-methyl-3-(3-nitro-pyridin-2-ylamino)-dihydro-furan-2-one]",40%,
"Cc1cc(C)nc(NC2CC(C)(c3ccc4c(c3)CCCC4)OC2=O)c1 (stereo not shown) [Example 35, 3-(4,6-Dimethyl-pyridin-2-ylamino)-5-methyl-5-(5,6,7,8-tetrahydro-naphthalen-2-yl)-dihydro-furan-2-one]",42%,
"Cc1cc(C)nc(NC2CC(C)(c3ccc4ccccc4c3)OC2=O)c1 (stereo not shown) [Example 36, 3-(4,6-Dimethyl-pyridin-2-ylamino)-5-methyl-5-naphthalen-2-yl-dihydro-furan-2-one]",65%,
"Cc1ccnc(NC2CC(C)(c3ccc4c(c3)OCO4)OC2=O)c1 (stereo not shown) [Example 37, 5-Benzo[1,3]dioxol-5-yl-5-methyl-3-(4-methyl-pyridin-2-ylamino)-dihydro-furan-2-one]",50%,
"Cc1ccnc(NC2CC(C)(c3ccc4c(c3)CCCC4)OC2=O)c1 (stereo not shown) [Example 38, 5-Methyl-3-(4-methyl-pyridin-2-ylamino)-5-(5,6,7,8-tetrahydro-naphthalen-2-yl)-dihydro-furan-2-one]",55%,
"Cc1ccc(NC2CC(C)(c3ccc4c(c3)OCO4)OC2=O)nc1 (stereo not shown) [Example 39, 5-Benzo[1,3]dioxol-5-yl-5-methyl-3-(5-methyl-pyridin-2-ylamino)-dihydro-furan-2-one]",44%,
"Cc1cccc(NC2CC(C)(c3ccc4c(c3)OCO4)OC2=O)n1 (stereo not shown) [Example 40, 5-Benzo[1,3]dioxol-5-yl-5-methyl-3-(6-methyl-pyridin-2-ylamino)-dihydro-furan-2-one]",53%,
"CC1(c2ccc3c(c2)CCCC3)CC(Nc2ncc(Br)cc2[N+](=O)[O-])C(=O)O1 (stereo not shown) [Example 41, 3-(5-Bromo-3-nitro-pyridin-2-ylamino)-5-methyl-5-(5,6,7,8-tetrahydro-naphthalen-2-yl)-dihydro-furan-2-one]",53%,
"CC(C)C1(c2ccccc2)CC(Nc2ncc(Br)cc2[N+](=O)[O-])C(=O)O1 (stereo not shown) [Example 42, 3-(5-Bromo-3-nitro-pyridin-2-ylamino)-5-isopropyl-5-phenyl-dihydro-furan-2-one]",41%,
"CC(C)C1(c2ccccc2)CC(Nc2ccc([N+](=O)[O-])cn2)C(=O)O1 (stereo not shown) [Example 43, 5-Isopropyl-3-(5-nitro-pyridin-2-ylamino)-5-phenyl-dihydro-furan-2-one]",45%,
"CC1(c2ccc3ccccc3c2)CC(Nc2ccc([N+](=O)[O-])cn2)C(=O)O1 (stereo not shown) [Example 44, 5-Methyl-5-naphthalen-2-yl-3-(5-nitro-pyridin-2-ylamino)-dihydro-furan-2-one]",47%,
"CC(C)C1(c2ccccc2)CC(Nc2ncccn2)C(=O)O1 (stereo not shown) [Example 45, 5-Isopropyl-5-phenyl-3-(pyrimidin-2-ylamino)-dihydro-furan-2-one]",58%,
"CCOC(=O)c1c[nH]nc1NC1CC(C)(c2ccc(I)cc2)OC1=O (stereo not shown) [Example 46, 3-[5-(4-Iodo-phenyl)-5-methyl-2-oxo-tetrahydro-furan-3-ylamino]-1H-pyrazole-4-carboxylic acid ethyl ester]",44%,
"CC1(c2ccc(Br)cc2)CC(Nc2ccc(Br)cn2)C(=O)O1 (stereo not shown) [Example 47, 5-(4-Bromo-phenyl)-3-(5-bromo-pyridin-2-ylamino)-5-methyl-dihydro-furan-2-one]",54%,
"Cc1cnc(NC2CC(C)(c3cccc4ccccc34)OC2=O)c(Br)c1 (stereo not drawn) [Example 48, 3-(3-Bromo-5-methyl-pyridin-2-ylamino)-5-methyl-5-naphthalen-l-yl-dihydro-furan-2-one]",,45%
"CCCc1cccc(NC2CC(C)(c3cccc4ccccc34)OC2=O)n1 (stereo not drawn) [Example 49, 5-Methyl-5-naphthalen-l-yl-3-(6-propyl-pyridin-2-ylamino)-dihydro-furan-2-one]",,53%
"CCCc1cccc(NC2CC(C)(c3cccc(Cl)c3)OC2=O)n1 (stereo not shown) [Example 50, 5-(3-Chloro-phenyl)-5-methyl-3-(6-propyl-pyridin-2-ylamino)-dihydro-furan-2-one]",61%,
"Cc1ccnc(NC2CC(C)(c3cccc(Cl)c3)OC2=O)c1[N+](=O)[O-] (stereo not shown) [Example 51, 5-(3-Chloro-phenyl)-5-methyl-3-(4-methyl-3-nitro-pyridin-2-ylamino)-dihydro-furan-2-one]",50%,

# Further lines, results first:
inhibition at 10 µM,NOS (% inhibition),SMILES
43%,,"Cc1ccnc(NC2CC(C)(c3ccc(Br)cc3)OC2=O)c1[N+](=O)[O-] (stereo not shown) [Example 52, 5-(4-Bromo-phenyl)-5-methyl-3-(4-methyl-3-nitro-pyridin-2-ylamino)-dihydro-furan-2-one]"
70%,,"Cc1nc(NC2CC(C)(c3ccc(I)cc3)OC2=O)ccc1Br (stereo not shown) [Example 54, 3-(5-Bromo-6-methyl-pyridin-2-ylamino)-5-(4-iodo-phenyl)-5-methyl-dihydro-furan-2-one]"
44%,,"CC1(c2ccc(I)cc2)CC(Nc2ncccc2OCc2ccccc2)C(=O)O1 (stereo not shown) [Example 55, 3-(3-Benzyloxy-pyridin-2-ylamino)-5-(4-iodo-phenyl)-5-methyl-dihydro-furan-2-one]"
59%,,"CC1(c2ccc(Br)cc2)CC(Nc2ncccc2OCc2ccccc2)C(=O)O1 (stereo not shown) [Example 56, 3-(3-Benzyloxy-pyridin-2-ylamino)-5-(4-bromo-phenyl)-5-methyl-dihydro-furan-2-one]"
72%,,"Cc1cc(C)nc(NC2CC(C)(c3ccc(I)cc3)OC2=O)c1 (stereo not shown) [Example 57, 3-(4,6-Dimethyl-pyridin-2-ylamino)-5-(4-iodo-phenyl)-5-methyl-dihydro-furan-2-one]"
73%,,"Cc1cc(C)nc(NC2CC(C)(c3cccc(Cl)c3)OC2=O)c1 (stereo not shown) [Example 58, 5-(3-Chloro-phenyl)-3-(4,6-dimethyl-pyridin-2-ylamino)-5-methyl-dihydro-furan-2-one]"
45%,,"Cc1cccnc1NC1CC(C)(c2ccc(Br)cc2)OC1=O (stereo not shown) [Example 59, 5-(4-Bromo-phenyl)-5-methyl-3-(3-methyl-pyridin-2-ylamino)-dihydro-furan-2-one]"
59%,,"Cc1ccnc(NC2CC(C)(c3ccc(Br)cc3)OC2=O)c1 (stereo not shown) [Example 60, 5-(4-Bromo-phenyl)-5-methyl-3-(4-methyl-pyridin-2-ylamino)-dihydro-furan-2-one]"
40%,,"CCCc1nc(NC2CC(C)(c3cc(OC)cc(OC)c3)OC2=O)ncc1C(=O)OCC (stereo not shown) [Example 61, 2-[5-(3,5-Dimethoxy-phenyl)-5-methyl-2-oxo-tetrahydro-furan-3-ylamino]-4-propyl-pyrimidine-5-carboxylic acid ethyl ester]"
40%,,"COc1cc(OC)cc(C2(C)CC(Nc3n[nH]cc3Br)C(=O)O2)c1 (stereo not shown) [Example 62, 3-(4-Bromo-1H-pyrazol-3-ylamino)-5-(3,5-dimethoxy-phenyl)-5-methyl-dihydro-furan-2-one]"
51%,,"COc1ccccc1C1(C)CC(Nc2n[nH]cc2Br)C(=O)O1 (stereo not shown) [Example 63, 3-(4-Bromo-1H-pyrazol-3-ylamino)-5-(2-methoxy-phenyl)-5-methyl-dihydro-furan-2-one]"
